Source: ChEMBL document CHEMBL3813627, “Preventive effect of a novel diosgenin derivative on arterial and venous thrombosis in vivo” (Bioorg Med Chem Lett, 2016)
Calls of active or inactive are those of the source. The rule behind the calls is not given here.

Key:
Mus musculus [1] = assay: Toxicity in Balb/c mouse assessed as white blood cell count at 28.8 mg/kg, ig bid for 7 days (reference value: 7.7 +/- 0.65 10^9/L); assay type: organism-based; details: in vivo, po, 168 h
Mus musculus [2] = assay: Toxicity in Balb/c mouse assessed as hemoglobin count at 28.8 mg/kg, ig bid for 7 days (reference value: 143 +/- 11.9 g/L); assay type: organism-based; details: in vivo, po, 168 h
Mus musculus [3] = assay: Toxicity in Balb/c mouse assessed as hematocrit at 28.8 mg/kg, ig bid for 7 days (reference value: 40.5 +/- 3.5 %); assay type: organism-based; details: in vivo, po, 168 h
Rattus norvegicus [4] = species on record: Rattus norvegicus; assay: Gastric toxicity in Sprague-Dawley rat assessed as gastric mucosal damage score treated for 49 days by hematoxylin and eosin staining based microscopic analysis; assay type: organism-based, Gastric mucosa; details: in vivo, 1176 h
Rattus norvegicus [5] = species on record: Rattus norvegicus; assay: Gastric toxicity in Sprague-Dawley rat assessed as angiogenesis treated for 49 days by hematoxylin and eosin staining based microscopic analysis; assay type: organism-based; details: in vivo, 1176 h
Rattus norvegicus [6] = species on record: Rattus norvegicus; assay: Gastric toxicity in Sprague-Dawley rat assessed as fibrotic changes treated for 49 days by hematoxylin and eosin staining based microscopic analysis; assay type: organism-based; details: in vivo, 1176 h
Rattus norvegicus [7] = assay: Anticoagulant activity in platelet-rich plasma isolated from Sprague-Dawley rat assessed as activated partial thromboplastin time at 20 mg/kg, ig bid for 7 days (reference value: 17.6 +/- 0.92 secs); assay type: functional
Rattus norvegicus [8] = assay: Antiplatelet activity in platelet-rich plasma isolated from Sprague-Dawley rat assessed as ADP-induced platelet aggregation at 20 mg/kg, ig bid for 7 days measured for 5 mins by light transmission aggregometry (reference value: 57.57 +/- 2.43 %); assay type: functional
Rattus norvegicus [9] = assay: Anticoagulant activity in platelet-rich plasma isolated from Sprague-Dawley rat assessed as prothrombin time at 20 mg/kg, ig bid for 7 days (reference value: 11.6 +/- 0.98 secs); assay type: functional
Rattus norvegicus [10] = assay: Anticoagulant activity in platelet-rich plasma isolated from Sprague-Dawley rat assessed as thrombin time at 20 mg/kg, ig bid for 7 days (reference value: 47.1 +/- 3.1 secs); assay type: functional
Rattus norvegicus [11] = assay: In vivo activation of coagulation factor8 in Sprague-Dawley rat at 20 mg/kg, ig bid for 7 days by automated coagulometry; assay type: functional, organism-based
Rattus norvegicus [12] = assay: In vivo activation of coagulation factor9 in Sprague-Dawley rat at 20 mg/kg, ig bid for 7 days by automated coagulometry; assay type: functional, organism-based
Rattus norvegicus [13] = assay: In vivo activation of coagulation factor10 in Sprague-Dawley rat at 20 mg/kg, ig bid for 7 days by automated coagulometry; assay type: functional, organism-based
Rattus norvegicus [14] = assay: In vivo activation of coagulation factor11 in Sprague-Dawley rat at 20 mg/kg, ig bid for 7 days by automated coagulometry; assay type: functional, organism-based
Rattus norvegicus [15] = assay: In vivo activation of coagulation factor12 in Sprague-Dawley rat at 20 mg/kg, ig bid for 7 days by automated coagulometry; assay type: functional, organism-based
Rattus norvegicus [16] = assay: Anti-thrombotic activity in Sprague-Dawley rat model of FeCl3-induced arterial thrombosis assessed as reduction in arterial thrombus length at 20 mg/kg, ig bid for 7 days by vernier caliper method; assay type: functional, organism-based
Rattus norvegicus [17] = assay: Anti-thrombotic activity in Sprague-Dawley rat model of FeCl3-induced arterial thrombosis assessed as reduction in arterial thrombus weight at 20 mg/kg, ig bid for 7 days; assay type: functional, organism-based
Rattus norvegicus [18] = assay: Anti-thrombotic activity in Sprague-Dawley rat model of FeCl3-induced venous thrombosis assessed as reduction in venous thrombus length at 46 mg/kg, ig bid for 7 days by vernier caliper method; assay type: functional, organism-based
Rattus norvegicus [19] = assay: Anti-thrombotic activity in Sprague-Dawley rat model of FeCl3-induced venous thrombosis assessed as reduction in venous thrombus weight at 46 mg/kg, ig bid for 7 days; assay type: functional, organism-based
Mus musculus [20] = assay: Toxicity in Balb/c mouse assessed as tail bleeding time at 28.8 mg/kg, ig bid for 7 days (reference value: 186 +/- 12 sec); assay type: organism-based; details: in vivo, po
Mus musculus [21] = assay: Toxicity in Balb/c mouse assessed as red blood cell count at 28.8 mg/kg, ig bid for 7 days (reference value: 7.55 +/- 0.59 10^12/L); assay type: organism-based; details: in vivo, po, 168 h
Mus musculus [22] = assay: Toxicity in Balb/c mouse assessed as platelet count at 28.8 mg/kg, ig bid for 7 days (reference value: 802 +/- 74 10^9/L); assay type: organism-based; details: in vivo, po, 168 h
Mus musculus [23] = assay: Toxicity in Balb/c mouse assessed as white blood cell count at 66.2 mg/kg, ig bid for 7 days (reference value: 7.7 +/- 0.65 10^9/L); assay type: organism-based; details: in vivo, po, 168 h
Mus musculus [24] = assay: Toxicity in Balb/c mouse assessed as hemoglobin count at 66.2 mg/kg, ig bid for 7 days (reference value: 143 +/- 11.9 g/L); assay type: organism-based; details: in vivo, po, 168 h
Mus musculus [25] = assay: Toxicity in Balb/c mouse assessed as hematocrit at 66.2 mg/kg, ig bid for 7 days (reference value: 40.5 +/- 3.5 %); assay type: organism-based; details: in vivo, po, 168 h
Rattus norvegicus [26] = assay: Antiplatelet activity in platelet-rich plasma isolated from Sprague-Dawley rat assessed as ADP-induced platelet aggregation at 46 mg/kg, ig bid for 7 days measured for 5 mins by light transmission aggregometry (reference value: 57.57 +/- 2.43 %); assay type: functional
Rattus norvegicus [27] = assay: Anticoagulant activity in platelet-rich plasma isolated from Sprague-Dawley rat assessed as activated partial thromboplastin time at 46 mg/kg, ig bid for 7 days (reference value: 17.6 +/- 0.92 secs); assay type: functional
Rattus norvegicus [28] = assay: Anticoagulant activity in platelet-rich plasma isolated from Sprague-Dawley rat assessed as prothrombin time at 46 mg/kg, ig bid for 7 days (reference value: 11.6 +/- 0.98 secs); assay type: functional
Rattus norvegicus [29] = assay: Anticoagulant activity in platelet-rich plasma isolated from Sprague-Dawley rat assessed as thrombin time at 46 mg/kg, ig bid for 7 days (reference value: 47.1 +/- 3.1 secs); assay type: functional
Mus musculus [30] = assay: Toxicity in Balb/c mouse assessed as red blood cell count at 66.2 mg/kg, ig bid for 7 days (reference value: 7.55 +/- 0.59 10^12/L); assay type: organism-based; details: in vivo, po, 168 h
Mus musculus [31] = assay: Toxicity in Balb/c mouse assessed as platelet count at 66.2 mg/kg, ig bid for 7 days (reference value: 802 +/- 74 10^9/L); assay type: organism-based; details: in vivo, po, 168 h

## CC(=O)Oc1ccccc1C(=O)O [ASPIRIN]
Mus musculus [1]
  Activity: 7.84 ×10⁹ /L
Mus musculus [2]
  Activity: 150 g/L
Mus musculus [3]
  Activity: 43.8%
Rattus norvegicus [4]
  UI: 20.66
Rattus norvegicus [5]
  Activity: Toxic
Rattus norvegicus [6]
  Activity: Toxic
Rattus norvegicus [7]
  APTT: 18 s
Rattus norvegicus [8]
  Activity: 28.85%
Rattus norvegicus [9]
  PT: 10.5 s
Rattus norvegicus [10]
  TT: 45.3 s
Rattus norvegicus [11]
  Activity: inactive
Rattus norvegicus [12]
  Activity: inactive
Rattus norvegicus [13]
  Activity: inactive
Rattus norvegicus [14]
  Activity: inactive
Rattus norvegicus [15]
  Activity: inactive
Rattus norvegicus [16]
  Activity: Active
Rattus norvegicus [17]
  Activity: Active
Rattus norvegicus [18]
  Activity: Active
Rattus norvegicus [19]
  Activity: Active
Mus musculus [20]
  Time: > 900 s
Mus musculus [21]
  Activity: 7.62 ×10¹² /L
Mus musculus [22]
  Activity: 651 ×10⁹ /L

## C[C@@H]1CC[C@@]2(OC1)O[C@H]1C[C@H]3[C@@H]4CC=C5C[C@@H](O)CC[C@]5(C)[C@H]4CC[C@]3(C)[C@H]1[C@@H]2C [DISOGENIN]
Mus musculus [23]
  Activity: 7.99 ×10⁹ /L
Mus musculus [24]
  Activity: 137 g/L
Mus musculus [25]
  Activity: 39.4%
Rattus norvegicus [4]
  UI: 1.33
Rattus norvegicus [5]
  Activity: Non-toxic
Rattus norvegicus [6]
  Activity: Non-toxic
Rattus norvegicus [26]
  Activity: 49.14%
Rattus norvegicus [27]
  APTT: 19.2 s
Rattus norvegicus [28]
  PT: 15.2 s
Rattus norvegicus [29]
  TT: 53.2 s
Mus musculus [30]
  Activity: 7.45 ×10¹² /L
Mus musculus [31]
  Activity: 788 ×10⁹ /L
